Results reported in US10227347B2, “Purinyl-N-hydroxyl pyrimidine formamide derivative, preparation methods and uses thereof” (Guizhou Bailing Group Pharmaceutical CO., LTD., priority 2015, dated 2019).
Where two headings read alike, the source gives them in different places.

How the values were obtained:
[1] = system: A2780s cells (ovarian cancer); experiment: Cell proliferation inhibition, A2780s (MTT); assay type: cell-based; conditions: Homo sapiens
Method: (§1) The tumor cell lines are purchased from American Type Culture Collection (ATCC) and cultivated to the status of logarithmic growth as per the cultural method recommended by ATCC. The cells in logarithmic phase are spread on a 96 well plate as per 2000-3000/well; as for anchorage-dependent cells, the compound should be added in the test wells at certain concentration for incubation for 96 h after cell adherence. Determining cell proliferation activities with method MTT for tumor cells representing solid tumor model and with method cck-8 for tumor cells representing hematologic tumor model, and analyzing the result data with the software GraphPad Prism.
(§2) Calculating the value of IC50 as per the formula: Y=background data+(top data−background data)/(1+10^((Log IC50−X)*rate of curve)). Where, Y refers to the inhibition ratio (%) and X refers to the compound concentration.

HDAC1 = target: T1, HDAC1 (Homo sapiens, UniProt Q13547); experiment: In vitro HDAC1 enzymatic activity inhibition (Lys-Ac-AMC substrate); assay type: biochemical
T1 construct: purchased BPS Bioscience
T1 sequence (Q13547 whole entry, species assumed): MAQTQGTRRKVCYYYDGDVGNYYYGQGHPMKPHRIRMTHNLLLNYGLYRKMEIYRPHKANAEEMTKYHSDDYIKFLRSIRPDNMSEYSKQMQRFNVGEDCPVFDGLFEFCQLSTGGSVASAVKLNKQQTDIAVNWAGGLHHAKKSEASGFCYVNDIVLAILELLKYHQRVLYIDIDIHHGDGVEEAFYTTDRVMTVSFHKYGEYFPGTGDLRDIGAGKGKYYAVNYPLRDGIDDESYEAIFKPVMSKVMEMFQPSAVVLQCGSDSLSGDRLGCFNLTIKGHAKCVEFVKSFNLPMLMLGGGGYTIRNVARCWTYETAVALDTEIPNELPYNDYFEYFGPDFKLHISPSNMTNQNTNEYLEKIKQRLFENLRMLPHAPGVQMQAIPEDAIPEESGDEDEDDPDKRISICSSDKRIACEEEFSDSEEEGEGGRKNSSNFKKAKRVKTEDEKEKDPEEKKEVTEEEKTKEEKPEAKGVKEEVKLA
Method: Determining the inhibition capability to HDAC activity through the substrate method of fluorophore 4-amino-7-coumarin coupled Ac-peptide (Lys-Ac-AMC). HDAC1 protein is purchased from BPS Bioscience Company; the reaction buffer system is a modified tris(hydroxymethyl)aminomethane (TRIS) buffer (pH7.0). All small molecule compounds are prepared and dissolved by 100% DMSO (dimethyl sulfoxide). HDAC is prepared into the buffer as per certain concentration to be served as the enzyme solution; trypsin and the fluorophore 4-amino-7-coumarin coupled Ac-peptide substrate are prepared into the buffer as per certain concentration to be served as the substrate solution. Adding the compound into the reaction wells of the 384 well plate at the designed concentration, then adding 15 μL HDAC solution into the reaction wells (adding 15 μL blank buffer into the control well 0) for incubation under ambient temperature for 15 min; then adding 10 μL substrate solution to start reaction; during the reaction, the final concentration of HDAC1 protein is 6 nM, trypsin 0.05 μM and Ac-peptide 8 μM.
(§3) Calculating the value of IC50 as per the formula: Y=background data+(top data−background data)/(1+10^((Log IC50−X)*rate of curve))
Where, Y refers to the inhibition ratio (%) and X refers to the compound concentration. […]
Analyzing the result data with the software GraphPad Prism and calculating the value of IC50 as per the formula: Y=background data+(top data−background data)/(1+10^((Log IC50−X)*rate of curve)). Where, Y refers to the inhibition ratio (%) and X refers to the compound concentration.

PI3Kα = target: T2, PI3Kα (Homo sapiens, UniProt P42336); experiment: PI3Kα activity inhibition (Kinase-Glo); assay type: biochemical; conditions: Table 1, graded; read-out: PI3Kα IC50
T2 construct: purchased Invitrogen PV4788
T2 sequence (P42336 whole entry, species assumed): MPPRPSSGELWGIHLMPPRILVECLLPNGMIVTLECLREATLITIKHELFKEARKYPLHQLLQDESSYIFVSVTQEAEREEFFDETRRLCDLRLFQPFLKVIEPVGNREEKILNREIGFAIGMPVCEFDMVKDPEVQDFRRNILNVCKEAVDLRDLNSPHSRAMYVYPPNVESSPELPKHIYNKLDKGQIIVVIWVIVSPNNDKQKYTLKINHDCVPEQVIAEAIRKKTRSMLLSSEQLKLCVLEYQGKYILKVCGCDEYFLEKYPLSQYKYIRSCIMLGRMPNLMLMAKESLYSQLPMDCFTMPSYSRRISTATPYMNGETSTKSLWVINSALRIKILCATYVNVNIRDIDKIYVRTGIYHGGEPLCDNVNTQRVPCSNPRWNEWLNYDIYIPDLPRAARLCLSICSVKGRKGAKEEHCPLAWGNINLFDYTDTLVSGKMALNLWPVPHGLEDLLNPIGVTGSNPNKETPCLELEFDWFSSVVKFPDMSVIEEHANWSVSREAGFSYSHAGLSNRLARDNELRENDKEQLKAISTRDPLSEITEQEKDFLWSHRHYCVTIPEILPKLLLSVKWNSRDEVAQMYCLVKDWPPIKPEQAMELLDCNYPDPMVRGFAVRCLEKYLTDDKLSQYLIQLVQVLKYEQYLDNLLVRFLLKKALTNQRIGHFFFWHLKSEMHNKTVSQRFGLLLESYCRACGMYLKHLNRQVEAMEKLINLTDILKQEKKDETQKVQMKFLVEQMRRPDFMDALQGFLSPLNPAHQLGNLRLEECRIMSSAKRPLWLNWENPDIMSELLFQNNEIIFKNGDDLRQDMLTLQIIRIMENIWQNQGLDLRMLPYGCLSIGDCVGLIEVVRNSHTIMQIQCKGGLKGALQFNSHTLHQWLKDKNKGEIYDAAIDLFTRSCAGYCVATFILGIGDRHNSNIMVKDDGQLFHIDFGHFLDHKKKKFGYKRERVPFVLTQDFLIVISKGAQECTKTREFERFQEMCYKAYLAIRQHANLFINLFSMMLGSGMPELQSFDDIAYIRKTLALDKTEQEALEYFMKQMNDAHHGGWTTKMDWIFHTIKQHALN
T2 sequence (P27986 whole entry partner, species assumed): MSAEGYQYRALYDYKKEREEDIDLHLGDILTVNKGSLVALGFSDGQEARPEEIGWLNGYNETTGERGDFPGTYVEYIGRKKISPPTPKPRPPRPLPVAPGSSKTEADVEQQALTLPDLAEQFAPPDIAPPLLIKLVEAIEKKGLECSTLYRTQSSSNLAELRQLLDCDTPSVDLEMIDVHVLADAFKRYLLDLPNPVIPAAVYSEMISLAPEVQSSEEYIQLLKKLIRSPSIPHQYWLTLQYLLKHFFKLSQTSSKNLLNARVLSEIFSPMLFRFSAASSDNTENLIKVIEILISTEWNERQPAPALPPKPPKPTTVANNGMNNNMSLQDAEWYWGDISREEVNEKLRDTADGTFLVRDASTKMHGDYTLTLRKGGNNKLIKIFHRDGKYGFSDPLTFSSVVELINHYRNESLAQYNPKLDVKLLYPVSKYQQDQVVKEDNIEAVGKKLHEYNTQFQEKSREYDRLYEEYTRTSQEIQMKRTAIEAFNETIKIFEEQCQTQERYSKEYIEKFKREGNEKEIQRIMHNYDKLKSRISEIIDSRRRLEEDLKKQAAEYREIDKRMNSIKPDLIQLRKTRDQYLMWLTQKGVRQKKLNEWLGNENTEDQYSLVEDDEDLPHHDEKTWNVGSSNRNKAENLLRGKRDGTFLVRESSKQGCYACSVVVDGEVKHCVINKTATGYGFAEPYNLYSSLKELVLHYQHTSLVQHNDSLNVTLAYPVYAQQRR
Method: Detecting the inhibition capability of the compound to PI3Kα and PI3Kδ activities with Kinase-Glo (purchased from Promege Company; Catalog No.: V3771). […] The reaction system also comprises substrates as PIP2 (4, 5-diphosphoinositide, purchased from Life Technologies Company) and ATP (triphosadenine, purchased from Sigma Company). The reaction buffer system comprises 50 mM HEPES (4-hydroxyethylpiperazine ethane sulfonic acid), 3 mM MgCl2, 1 mM EGTA (ethylene glycol bis(2-amino ethylether)quadrol), 100 mM NaCl, 0.03% CHAPS (3-[3-(cholamidopropyl)dimethylamino]-1-propanesulfonic acid), 2 mM DTT (dithiothreitol). The pH value of the reaction buffer is 7.5. […] Mixing the system evenly for incubation under ambient temperature (for 1 h in PI3Kα test and for 2 h in PI3Kδ test). After incubation, adding 10 μL Kinase-Glo which has been preheated to ambient temperature into each reaction well to terminate the reaction; shaking it in dark place for 15 min after it is mixed evenly, then measuring the fluorescence intensity with a microplate reader and analyzing the result data with the software GraphPad Prism.
as §3
Where, Y refers to the inhibition ratio (%) and X refers to the compound concentration.

[2] = system: hct116 cells (colon cancer); experiment: Cell proliferation inhibition, hct116 (MTT); assay type: cell-based; conditions: Homo sapiens, HCT-116
Method: as §1, §2

[3] = system: MV4-11 cells (acute myeloid leukemia); experiment: Cell proliferation inhibition, MV4-11 (cck-8); assay type: cell-based; conditions: Homo sapiens
Method: as §1, §2

[4] = 96 h incubation, read-out: Proliferation IC50, Ovarian cancer A2780s
[5] = read-out: IC50 to proliferation of A2780s cells
[6] = Table 1, graded, read-out: HDAC1 IC50
[7] = read-out: inhibition value IC50 to the activity of HDAC1
[8] = 96 h incubation, read-out: Proliferation IC50, Colon cancer hct116
[9] = read-out: IC50 to proliferation of hct116 cells
[10] = 96 h incubation, read-out: Proliferation IC50, Acute myeloid leukemia MV4-11
[11] = read-out: IC50 to proliferation of MV4-11 cells

Row | IC50 [1, 4] [nM] | IC50 [1, 5] [nM] | IC50 (HDAC1; [6]) [nM] | IC50 (HDAC1; [7]) [nM] | IC50 (PI3Kα) [nM] | IC50 [2, 8] [nM] | IC50 [2, 9] [nM] | IC50 [3, 10] [nM] | IC50 [3, 11] [nM] | SMILES
1 | 0.1 to 10 | 0.1 to 10 | < 1 | < 1 | 1000 to 10000 | 0.1 to 10 | 0.1 to 10 | 0.1 to 10 | 0.1 to 10 | CN(Cc1nc2c(N3CCOCC3)nc(-c3ccc[nH]3)nc2n1C)c1ncc(C(=O)NO)cn1 [CLJ-24, 2-(((2-(1H-2-pyrrolyl)-9-methyl-6-morpholine-9H-purine-8-yl))methyl(methyl)amino)-N-hydroxyl pyrimidine-5-formamide]
2 | 0.1 to 10 | 0.1 to 10 | < 100 |  | 1000 to 10000 | 0.1 to 10 | 0.1 to 10 | 0.1 to 10 | 0.1 to 10 | CN(C)CCn1cc(-c2nc(N3CCOCC3)c3nc(CN(C)c4ncc(C(=O)NO)cn4)n(C)c3n2)cn1 [CLJ-25]
3 | 10 to 100 |  | < 1 | < 1 | > 10000 | 10 to 100 |  | 0.1 to 10 |  | CN(Cc1nc2c(N3CCOCC3)nc(-c3cccc(O)c3)nc2n1C)c1ncc(C(=O)NO)cn1 [CLJ-27, 2-(((2-(3-hydroxyphenyl)-9-methyl-6-morpholine-9H-purine-8-yl))methyl(methyl)amino)-N-hydroxyl pyrimidine-5-formamide]
4 | 10 to 100 |  | < 100 |  | > 10000 | 10 to 100 |  | 0.1 to 10 |  | CCn1c(CN(C)c2ncc(C(=O)NO)cn2)nc2c(N3CCOCC3)nc(-c3ccc(OC)cc3)nc21 [CLJ-30, 2-((9-ethyl-2(4-methoxyphenyl)-6-morpholino-9H-purine-8-yl)methyl)(methyl)amino-N-hydroxyl pyrimidine-5-formamide]
5 | > 1000 |  | 100 to 1000 |  | > 10000 | > 1000 |  | > 1000 |  | COc1ccc(-c2nc(N3CCOCC3)c3nc(CN(C)c4ncc(C(=O)NO)cn4)n(C(C)C)c3n2)cc1 [CLJ-31]
6 | > 1000 |  | 100 to 1000 |  | > 10000 | > 1000 |  | > 1000 |  | COc1ccc(-c2nc(N3CCOCC3)c3nc(CN(C)c4ncc(C(=O)NO)cn4)n(C4CCCC4)c3n2)cc1 [CLJ-32, 2-(((9-cyclopentyl-2(4-methoxyphenyl)-6-morpholine-9H-purine-8-yl)methyl)(methyl)amino)-N-hydroxyl pyrimidine-5-formamide]
7 | 0.1 to 10 | 0.1 to 10 | < 1 | < 1 | > 10000 | 0.1 to 10 | 0.1 to 10 | 0.1 to 10 | 0.1 to 10 | CN(Cc1nc2c(N3CCOCC3)nc(-c3ccc4c(c3)OCO4)nc2n1C)c1ncc(C(=O)NO)cn1 [CLJ-36, 2-(((2-(benzo[d][1,3]dioxole-5-yl)-9-methyl-6-morpholine-9H-purine-8-yl))methyl(methyl)amino)-N-hydroxyl pyrimidine-5-formamide]
8 | 10 to 100 |  | < 100 |  | > 10000 | 100 to 1000 | > 100 | 0.1 to 10 | < 10 | COc1ccc(C(F)(F)F)cc1-c1nc(N2CCOCC2)c2nc(CN(C)c3ncc(C(=O)NO)cn3)n(C)c2n1 [CLJ-38, 2-(((2-(2-methoxy-5-trifluoromethylphenyl)-9-methyl-6-morpholine-9H-purine-8-yl))methyl(methyl)amino)-N-hydroxyl pyrimidine-5-formamide]
9 | 0.1 to 10 | 0.1 to 10 | < 100 |  | > 10000 | 0.1 to 10 | 0.1 to 10 | 0.1 to 10 | 0.1 to 10 | CCNc1ccc(-c2nc(N3CCOCC3)c3nc(CN(C)c4ncc(C(=O)NO)cn4)n(C)c3n2)cc1 [CLJ-48]
10 | 10 to 100 |  | < 100 |  | > 10000 | 100 to 1000 |  | 10 to 100 |  | CC(C)=CCN(CC=C(C)C)c1ccc(-c2nc(N3CCOCC3)c3nc(CN(C)c4ncc(C(=O)NO)cn4)n(C)c3n2)cc1 [CLJ-49]
11 | 100 to 1000 |  | < 100 |  | > 10000 | 100 to 1000 |  | 100 to 1000 |  | CN(Cc1nc2c(N3CCOCC3)nc(-c3ccc(Cl)c(C(F)(F)F)c3)nc2n1C)c1ncc(C(=O)NO)cn1 [CLJ-54, 2-(((2-(-4-chlorine-3-trifluoromethylphenyl)-9-methyl-6-morpholine-9H-purine-8-yl))methyl(methyl)amino)-N-hydroxyl pyrimidine-5-formamide]
12 | 10 to 100 |  | < 100 |  | > 10000 | 10 to 100 |  | 0.1 to 10 |  | CN(Cc1nc2c(N3CCOCC3)nc(-c3ccc(C(F)(F)F)cc3)nc2n1C)c1ncc(C(=O)NO)cn1 [CLJ-55]
13 | 100 to 1000 |  | < 100 |  | > 10000 | 100 to 1000 |  | 10 to 100 |  | CN(Cc1nc2c(N3CCOCC3)nc(-c3cc(C(F)(F)F)cc(C(F)(F)F)c3)nc2n1C)c1ncc(C(=O)NO)cn1 [CLJ-56]
14 | 0.1 to 10 |  | < 1 | < 1 | > 10000 | 10 to 100 |  | 0.1 to 10 |  | CN(Cc1nc2c(N3CCOCC3)nc(-c3ccc(S(C)(=O)=O)cc3)nc2n1C)c1ncc(C(=O)NO)cn1 [CLJ-57, 2-(((2-(4-methylsulphonylphenyl)-9-methyl-6-morpholine-9H-purine-8-yl))methyl(methyl)amino)-N-hydroxyl pyrimidine-5-formamide]
15 | 0.1 to 10 |  | < 100 |  | > 10000 | 10 to 100 |  | 0.1 to 10 |  | Cc1ccc(-c2nc(N3CCOCC3)c3nc(CN(C)c4ncc(C(=O)NO)cn4)n(C)c3n2)cc1 [CLJ-60, 2-(((2-(p-methylbenzene)-9-methyl-6-morpholine-9H-purine-8-yl))methyl(methyl)amino)-N-hydroxyl pyrimidine-5-formamide]
16 | 10 to 100 |  | < 100 |  | > 10000 | 10 to 100 |  | 10 to 100 |  | CN(Cc1nc2c(N3CCOCC3)nc(Cl)nc2n1C)c1ncc(C(=O)NO)cn1 [CLJ-68]

Row | SMILES | IC50 [1, 4] [nM] | IC50 [1, 5] [nM] | IC50 (HDAC1; [6]) [nM] | IC50 (HDAC1; [7]) [nM] | IC50 (PI3Kα) [nM] | IC50 [2, 8] [nM] | IC50 [2, 9] [nM] | IC50 [3, 10] [nM] | IC50 [3, 11] [nM]
17 | COc1cc(-c2nc(N3CCOCC3)c3nc(CN(C)c4ncc(C(=O)NO)cn4)n(C)c3n2)cc(OC)c1OC [CLJ-35, 2-(((2-(3,4,5-trimetoxyphenyl)-9-methyl-6-morpholine-9H-purine-8-yl))methyl(methyl)amino)-N-hydroxyl pyrimidine-5-formamide] | 10 to 100 |  | < 100 |  | > 10000 | 10 to 100 |  | 0.1 to 10 | 
